Results published in US4462993A, “Aminoacridine-α, β-(D)- or -(L)-N-glycoside derivatives, the salts thereof and a process for the preparation of such compounds” (Biogal Gyogyszergyar, priority 1981, dated 1984).
Read-outs that look alike come from different tables or passages of the source.

Legend:
Ehrlich tumor = assay: inhibition and prevention of the Ehrlich tumor in mice and rats; type: in vivo
Aspergillus funigatus = assay: efficacy against Aspergillus funigatus; type: cell-based
Procedure: (§1) The incorporation of the sugar group into the aminoacridine molecule modifies its properties in an unforeseen way. Thus e.g. 3,6-diamino-acridine and 3,6-diamino-10-methyl-acridine are efficacious in concentrations of 50 μg/ml against microorganisme (Bacillus subtilis, Salmonalla typhy-murium, Proteus vulgaris, Escherichia coli, Shigella flexneri etc.) while the diglucoside of the 3,6-diamino-acridine is inefficacious also in concentrations of 500 μg/ml against the named microorganisms. Inversely the aminoacridines are inefficacious against fungi while the diglucoside of 3,6-diamino-10-methyl-acridine is efficacious e.g. against Aspergillus funigatus and Aspergillus niger.

[1] = test system: ascites tumor according to Ehrlich; assay: test with the Ehrlich-carcinoma in mice; type: in vivo
Procedure: A test with the Ehrlich-carcinoma was carried out with 50 mice each as test group and as K control group. The animals were intraperitoneally infected with 5×10^6 cells each of the ascites tumor according to Ehrlich. On the first, second and third day after the infection half of the mice were treated with 12.5 mg/kg.d of 10-methyl-proflavine-diglucoside.

[2] = toxicity measurements at CFLP-mice (LD50); settings: mouse, in vivo, female CFLP-mice
Excerpt: By the incorporation of one or more sugar residue(s) the toxicity of the compounds is influenced positively, too. The results of toxicity measurements carried out at CFLP-mice (female) (Litchfield, J. T. and Wilcoxon F.: J. Pharmacol. 96, 99 (1949) are summarized in the following Table.

Aspergillus niger = assay: efficacy against Aspergillus niger; type: cell-based
Procedure: as §1

wounds = settings: disinfecting of wounds, World War II; cited from earlier work
Ehrlich ascites tumor = settings: Schumelfelder et al., Z. Krebsforsch, 63, 129 (1959); cited from earlier work
[3] = known; cited from earlier work
[4] = literature; cited from earlier work
[5] = decomposition product; cited from earlier work

| SMILES | LD50 ([2]; ip, read-out: LD50 i.p.) | LD50 ([2]; iv, read-out: LD50 i.v.) | healing of the wound (wounds) | tissue necrosis (wounds) | antimicrobial effect [3] | mutation of certain objects [4] | further results |
| --- | --- | --- | --- | --- | --- | --- | --- |
| C[n+]1c2cc(N[C@@H]3O[C@H](CO)[C@@H](O)[C@H](O)[C@H]3O)ccc2cc2ccc(N[C@@H]3O[C@H](CO)[C@@H](O)[C@H](O)[C@H]3O)cc21.[Cl-] [3,6-Di-(β-D-glucopyranosyl-amino)-10-N-methyl-acridinium chloride] | 210 mg/kg | 37 mg/kg |  |  |  |  | state of the animal concerning its condition (Ehrlich tumor; 6.25 mg/kg-12.5 mg/kg i.p.): improves the state of the animal concerning its condition; development of the Ehrlich tumor (Ehrlich tumor; test animals: mice and rats): inhibits the development of the Ehrlich tumor; formation of the Ehrlich tumor (Ehrlich tumor; test animals: mice and rats): prevents its formation; efficacy against fungi (Aspergillus funigatus): efficacious; Change of body weight in g on the 7th day ([1]; 12.5 mg/kg.d on first, second and third day after infection, 7th day): +1.2 g; Change of body weight in g on the 12th day ([1]; 12.5 mg/kg.d on first, second and third day after infection, 12th day): +2.0 g; Change of body weight in g on the 21st day ([1]; 12.5 mg/kg.d on first, second and third day after infection, 21st day): +2.6 g; treated animals still living on the 40th day ([1]; 12.5 mg/kg.d, 40th day): all treated animals were still living; Average surviving time ([1]; 12.5 mg/kg.d, observation stopped on the 40th day): 40.0 days; efficacy against fungi (Aspergillus niger): efficacious |
| C[n+]1c2cc(N)ccc2cc2ccc(N)cc21 [3,6-diamino-10-methyl-acridine] | 60 mg/kg | 14 mg/kg | slowed down the healing of the wound | caused tissue necrosis | exert a certain antimicrobial effect | can cause mutation of certain objects | growth of the Ehrlich ascites tumor (Ehrlich ascites tumor): inhibited |
| OC[C@H]1O[C@@H](Nc2ccc3cc4ccc(N[C@@H]5O[C@H](CO)[C@@H](O)[C@H](O)[C@H]5O)cc4nc3c2)[C@H](O)[C@@H](O)[C@@H]1O [3,6-diamino-acridine-diglucoside, 3,6-Di-(β-Di-glucopyranosyl-amino)-acridine] | 280 mg/kg | 87 mg/kg |  |  |  |  |  |
| O=c1c2ccccc2[nH]c2cccc([N+](=O)[O-])c12 [1-nitroacridone] |  |  |  |  |  |  | biological activity [5]: biologically inactive |
| Nc1ccc2cc3ccc(N)cc3nc2c1 [3,6-diamino-acridine, 3,6-diaminoacridine] | 84 mg/kg | 65 mg/kg | slowed down the healing of the wound | caused tissue necrosis | exert a certain antimicrobial effect | can cause mutation of certain objects |  |
